Holding throughout (assay type): cell-based
For one assay, the target named is T1, Tel-Jak2 (Homo sapiens, UniProt O60674).
T1 construct: The regions encompassing the kinase domains of JAK2 (nucleotides 2994–3914); TEL (ETV6, human P41212) N-terminal part encoded by nucleotides 1-487 of TEL; expressed in transfected cells; host or cells: BaF3 (murine) bearing pTET-off, transfected with pTELJAK2 (pTRE2 vector); the other entry of the earlier key: ETV6 (P41212, Transcription factor ETV6)
Description: Cellular growth inhibition assay (MTT), Tel-Jak2 transformed BaF3 cell line. The settings on record: 40 hr incubation, read-out: Jak2: growth inhibitory activity (>50%) in transformed cell line Tel-Jak2. The source says:
(§1) The coding region encompassing nucleotides 1–487 of TELwas amplified by PCR using the oligonucleotides 5TEL (5′-GGAGGATCCTGATCTCTCTCGCTGTGAGAC-3′) and 3TEL (5′-AGGC GTCGACTTCTTCTTCATGGTTCTG-3′) and U937 mRNA as template. A BamHI site was present into the 5TEL Primer, a SalI site was incorporated into the 3TEL primer. The regions encompassing the kinase domains of JAK2 (nucleotides 2994–3914; JAK2F 5′-ACGC GTCGACGGTGCCTTTGAAGACCGGGAT-3′; JAK2R 5′-ATAGTTTAGCGGCCGCTCAGAATGAAGGTCATTT-3′) and JAK3 (nucleotides 2520–3469; JAK3F 5′-GAAGTCGACTATGCCTGCCAAGACCCCACGATCTT-3′; JAK3R 5′-GGATCTAGACTATGAAAAGGACAGGGAGTGGTGTTT-3′) were generated by PCR using Taq DNA Polymerase (Gibco/BRL) and U937 mRNA as template. A SalI site was incorporated into the forward primer of JAK2 and JAK3, a NotI site was incorporated into the JAK2 reverse primer and a Xba I site was added to the reverse primer of JAK3.
(§2) A TEL/Jak2 fusion was generated by digestion of the TELPCR product with BamHI/SalI, digestion of the JAK2 PCR product with SalI/NotI followed by ligation and subcloning into the mammalian expression Vector pTRE 2 (Clontech) digested with BamHI-NotI (pTELJAK2). For JAK3 SalI/NotI cleaved kinase domain PCR product was ligated with BamHI/SalI cleaved TELproduct followed by ligation into BamHI/NotI cleaved pTRE2 (pTELJAK3).
(§3) The growth factor dependent myelomonocytic cell line BaF3 bearing the pTET-off plasmid (Clontech) was transfected with either pTELJAK2 or pTELJAK3 and the cells selected for factor independent growth. BaF 3 wild type cells were cultured in DMEM 10% FCS, 10% WEHI 3B conditioned medium. BaF3 TELJAK cells were cultured in DMEM 10% Tet-System Approved FBS (without WEHI 3B conditioned medium).
(§4) Cell suspensions were prepared by harvesting cells from culture. (Cells used in this test should be in later log phase growth and high viability.) Cells were diluted in correct growth medium to 1.1×final concentration (from 50000 cell/mL to 200,000 cell/mL, depending on cell line).
(§5) Compounds to be tested were added (10 μL, 10×final concentration) to a flat bottom 96-well plate. The cellular suspension (90 μL per well) was added, and the plate incubated for 40 hr at 37° C., 5% CO2. MTT (20 μL per well, 5 mg/mL in PBS) was added and the plates were returned to the incubator for a further 6 hours. Lysis buffer (100 μL per well, 10% SDS, 0.01N HCl) was added and the plate stored in the incubator overnight. The plate was then read at 590 nm.

The next assay relates to DU145. Description: Cellular growth inhibition assay (MTT), DU145 cells. The following applies: Homo sapiens, DU-145, 40 hr incubation, read-out: DU145: growth inhibitory activity. The procedure: as §4, §5
For the next assay, the target named is T2, Tel-Jak3 (Homo sapiens, UniProt P52333).
T2 construct: TEL (ETV6, human P41212) N-terminal part encoded by nucleotides 1-487 of TEL; expressed in transfected cells; host or cells: BaF3 (murine) bearing pTET-off, transfected with pTELJAK3 (pTRE2 vector); the other entry of the earlier key: ETV6 (P41212, Transcription factor ETV6)
T2 sequence (P52333 with tags, fused parts or gaps): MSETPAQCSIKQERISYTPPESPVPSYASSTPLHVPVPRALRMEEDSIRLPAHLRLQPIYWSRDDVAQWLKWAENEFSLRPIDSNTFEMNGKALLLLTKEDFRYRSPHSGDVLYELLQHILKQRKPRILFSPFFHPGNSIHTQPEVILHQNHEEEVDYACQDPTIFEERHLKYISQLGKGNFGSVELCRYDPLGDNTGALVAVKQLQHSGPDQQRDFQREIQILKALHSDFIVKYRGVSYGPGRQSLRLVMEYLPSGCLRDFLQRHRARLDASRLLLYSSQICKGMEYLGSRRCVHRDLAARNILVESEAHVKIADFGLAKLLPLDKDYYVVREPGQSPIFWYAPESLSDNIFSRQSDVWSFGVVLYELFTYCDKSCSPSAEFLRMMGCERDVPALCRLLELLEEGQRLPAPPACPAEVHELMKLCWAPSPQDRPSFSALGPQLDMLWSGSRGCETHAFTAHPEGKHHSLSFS
Description: Cellular growth inhibition assay (MTT), Tel-Jak3 transformed BaF3 cell line. The settings on record: 40 hr incubation, read-out: Jak3: growth inhibitory activity (>50%) in transformed cell line Tel-Jak3.
Text: as §1, §2, §3, §4, §5

T1 sequence (O60674 with tags, fused parts or gaps): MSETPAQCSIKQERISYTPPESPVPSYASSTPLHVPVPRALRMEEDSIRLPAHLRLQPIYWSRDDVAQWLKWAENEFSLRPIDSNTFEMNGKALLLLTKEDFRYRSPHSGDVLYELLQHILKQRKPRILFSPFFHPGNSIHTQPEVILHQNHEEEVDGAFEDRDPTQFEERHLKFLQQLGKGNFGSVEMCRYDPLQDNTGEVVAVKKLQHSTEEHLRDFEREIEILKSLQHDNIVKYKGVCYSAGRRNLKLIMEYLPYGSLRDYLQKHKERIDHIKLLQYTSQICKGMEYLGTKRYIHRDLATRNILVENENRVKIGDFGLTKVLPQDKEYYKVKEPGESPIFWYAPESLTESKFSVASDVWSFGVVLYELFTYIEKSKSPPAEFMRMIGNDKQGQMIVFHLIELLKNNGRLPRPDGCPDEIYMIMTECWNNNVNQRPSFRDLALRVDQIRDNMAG

For the molecule `COc1cc(-c2cncc(NC(C)c3ccc(NC(=O)c4cccnc4)cc3)n2)ccc1O` (stereo not drawn) [Chemistry 280], the values for the inhibition at 50 µM at Tel-Jak2, with DU145 and on Tel-Jak3 were more than 50%, less than 50% and more than 50%, respectively.
As to `COc1cc(-c2cncc(NC(C)c3ccc(NC(=O)C4CCCN4C(=O)OC(C)(C)C)cc3)n2)ccc1O` (stereo not drawn) [Chemistry 281], the inhibition at 50 µM on Tel-Jak2, in the assay on DU145 and at Tel-Jak3 was more than 50% each time.
Regarding `COc1cc(-c2cncc(NC(C)c3ccc(NC(=O)CN4CCN(C)CC4)cc3)n2)ccc1O` (stereo not drawn) [Chemistry 282], the inhibition at 50 µM on Tel-Jak2, in the assay with DU145 and on Tel-Jak3 was more than 50% in each case.
Take `COc1cc(-c2cncc(NC(C)c3ccc(NC(=O)N4CCN(C)CC4)cc3)n2)ccc1O` (stereo not drawn) [Chemistry 283]: the inhibition at 50 µM on Tel-Jak2, in the assay with DU145 and on Tel-Jak3 was more than 50% each time.
`CCN(CC)CCOc1ccc(C(C)Nc2cncc(-c3ccc(O)c(OC)c3)n2)cc1` (stereo not drawn) [Chemistry 285]: the inhibition at 50 µM on Tel-Jak2, with DU145 and on Tel-Jak3 was more than 50% each time.
As for `COc1cc(-c2cncc(NC(C)c3ccc(C#N)cc3)n2)ccc1O` (stereo not drawn) [Chemistry 303], the inhibition at 50 µM is more than 50% at Tel-Jak2, less than 50% in the assay with DU145 and more than 50% at Tel-Jak3.
For `COc1cc(-c2cncc(NC(C)c3ccc(C(N)=O)cc3)n2)ccc1O` (stereo not drawn) [Chemistry 304], the results for the inhibition at 50 µM on Tel-Jak2, in the assay with DU145 and on Tel-Jak3 were more than 50%, less than 50% and more than 50%, respectively.
As for `COc1cc(-c2cncc(NC(C)c3ccc(NCCN4CCN(C)CC4)cc3)n2)ccc1O` (stereo not drawn) [Chemistry 318], the inhibition at 50 µM on Tel-Jak2 was more than 50%; in the assay on DU145, less than 50%; on Tel-Jak3 it was more than 50%.
For the molecule `COc1cc(-c2cncc(NC(C)c3ccc(N)cc3)n2)ccc1O` (stereo not drawn) [Chemistry 319], the inhibition at 50 µM at Tel-Jak2 is more than 50%; in the assay on DU145, less than 50%; at Tel-Jak3, more than 50%.
For `COc1cc(-c2cncc(NC(C)c3ccc(NCc4cccnc4)cc3)n2)ccc1O` (stereo not drawn) [Chemistry 320], the inhibition at 50 µM was more than 50% on Tel-Jak2, less than 50% in the assay with DU145 and more than 50% on Tel-Jak3.
Turning to `COc1cc(-c2cncc(NC(C)c3ccc(C(=O)O)cc3)n2)ccc1O` (stereo not drawn) [Chemistry 324], the inhibition at 50 µM at Tel-Jak2, in the assay on DU145 and at Tel-Jak3 was less than 50% throughout.
Turning to `COc1cc(-c2cncc(NC(C)c3ccc(C(=O)NCCN(C)C)cc3)n2)ccc1O` (stereo not drawn) [Chemistry 352], the values for the inhibition at 50 µM on Tel-Jak2, in the assay on DU145 and at Tel-Jak3 were more than 50%, less than 50% and more than 50%, respectively.
For `COc1cc(-c2cncc(NC(C)c3ccc(C(=O)NCC4CC4)cc3)n2)ccc1O` (stereo not drawn) [Chemistry 354], the inhibition at 50 µM on Tel-Jak2 was more than 50%; in the assay with DU145, less than 50%; on Tel-Jak3 it was more than 50%.
With `CNC(=O)c1ccc(C(C)Nc2cncc(-c3ccc(O)c(OC)c3)n2)cc1` (stereo not drawn) [Chemistry 370], the inhibition at 50 µM was more than 50% on Tel-Jak2, less than 50% in the assay on DU145 and more than 50% on Tel-Jak3.
As to `COc1cc(-c2cncc(NC(C)c3ccc(C(=O)NCc4cccnc4)cc3)n2)ccc1O` (stereo not drawn) [Chemistry 372], the inhibition at 50 µM on Tel-Jak2 is more than 50%; in the assay on DU145, less than 50%; at Tel-Jak3, more than 50%.
As to `COc1cc(-c2cncc(NC(C)c3ccc(C(=O)NCCO)cc3)n2)ccc1O` (stereo not drawn) [Chemistry 374], the figures for the inhibition at 50 µM at Tel-Jak2, in the assay with DU145 and at Tel-Jak3 were more than 50%, less than 50% and more than 50%, respectively.

Source of the values: patent US7122550B2, “Protein kinase inhibitors” (Cytopia Pty Ltd, priority 2002, dated 2006).
